The source made the active and inactive calls. No cut-off for these calls is given here.
How the values were obtained:
[1] = target: Urease (Canavalia ensiformis, UniProt P07374); assay: (§1) Inhibition of jack bean urease
[2] = target: Urease (Canavalia ensiformis) (UniProt P07374); assay: as §1
Urease (Canavalia ensiformis), sequence (P07374 whole entry, looked up): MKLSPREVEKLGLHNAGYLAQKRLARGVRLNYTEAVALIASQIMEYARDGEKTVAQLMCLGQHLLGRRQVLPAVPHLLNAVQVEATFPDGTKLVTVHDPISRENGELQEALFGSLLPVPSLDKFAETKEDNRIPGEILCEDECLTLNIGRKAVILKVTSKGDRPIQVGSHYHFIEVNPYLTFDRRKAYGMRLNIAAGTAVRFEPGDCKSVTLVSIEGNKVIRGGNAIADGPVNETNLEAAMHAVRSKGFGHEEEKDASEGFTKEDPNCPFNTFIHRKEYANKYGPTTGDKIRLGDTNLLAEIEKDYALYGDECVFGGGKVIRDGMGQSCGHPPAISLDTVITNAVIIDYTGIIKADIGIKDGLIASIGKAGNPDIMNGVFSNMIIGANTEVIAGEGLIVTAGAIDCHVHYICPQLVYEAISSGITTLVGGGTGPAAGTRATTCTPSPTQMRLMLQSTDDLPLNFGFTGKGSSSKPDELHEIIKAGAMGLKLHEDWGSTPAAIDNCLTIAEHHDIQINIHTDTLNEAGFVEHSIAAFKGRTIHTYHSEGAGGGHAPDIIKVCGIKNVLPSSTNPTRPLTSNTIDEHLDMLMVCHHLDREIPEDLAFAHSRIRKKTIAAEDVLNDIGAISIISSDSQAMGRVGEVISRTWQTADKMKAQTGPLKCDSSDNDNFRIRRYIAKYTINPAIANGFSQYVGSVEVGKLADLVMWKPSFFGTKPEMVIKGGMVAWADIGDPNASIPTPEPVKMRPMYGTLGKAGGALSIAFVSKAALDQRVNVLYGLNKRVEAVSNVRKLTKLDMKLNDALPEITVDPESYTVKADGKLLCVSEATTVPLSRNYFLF

Urease, sequence (P07374 whole entry): as the sequence (P07374 whole entry, looked up) above

Row | SMILES | Ki [1] | Activity [2]
1 | CC(C)N(C(=[Se])N(C)C)C1CCCCC1 | 25 nM | –
2 | CCCCCCCCCCCCNC(=S)N(C)C | 124 nM | –
3 | C[C@H](NC(=[Se])N(C)C)c1cccc2ccccc12 | 94 nM | –
4 | CN(C)C(=[Se])N1CCOCC1 | – | inactive
5 | CN(C)C(=[Se])NCc1ccc(Br)cc1 | 135 nM | –
6 | CN(C)C(=S)N1CCOCC1 | – | inactive
7 | CN(C)C(=S)Nc1ccc(Br)cc1 | 255 nM | –
